For this assay, the target named is HPK1 (Homo sapiens (Human), UniProt Q92918). Kind of assay: HPK1 Lantha binding assay ("Lanth"). The following applies: binding assays; Morrison Ki fit. The procedure, abridged: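 TR-FRET binding competition using 2 nM HPK1, 2 nM Eu-anti-GST antibody and 15 nM Tracer222 at 23 °C. Compound was incubated 1 h with enzyme and antibody, then 1 h after tracer addition, with an 11-point 5-fold dilution series. Ki obtained from a Morrison fit that corrects for tracer concentration and Kd.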
Sequence of HPK1 (Q92918 1-346 limits assumed): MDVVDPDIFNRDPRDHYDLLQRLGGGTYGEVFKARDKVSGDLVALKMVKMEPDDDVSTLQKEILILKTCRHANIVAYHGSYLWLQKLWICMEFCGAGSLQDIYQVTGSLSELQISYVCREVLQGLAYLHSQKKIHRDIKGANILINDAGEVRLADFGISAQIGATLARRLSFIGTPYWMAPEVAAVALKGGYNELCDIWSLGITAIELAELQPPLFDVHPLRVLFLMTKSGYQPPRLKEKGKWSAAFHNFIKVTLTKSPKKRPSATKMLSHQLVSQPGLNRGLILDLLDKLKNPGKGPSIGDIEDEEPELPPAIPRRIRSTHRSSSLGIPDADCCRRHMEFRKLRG

For orientation: Ki means the equilibrium dissociation constant of an inhibitor or competing ligand from its target. A low value points to higher affinity.

In turn, `CN(C)C(=O)c1c(N)ccc(-c2cnc3c(c2Cl)[C@]2(CC[C@@H](C(C)(C)O)CC2)CN3)c1F` [Compound 255b, 6-Amino-3-((1r,4r)-4′-chloro-4-(2-hydroxypropan-2-yl)-1′,2′-dihydrospiro[cyclohexane-1,3′-pyrrolo[2,3-b]pyridin]-5′-yl)-2-fluoro-N,N-dimethylbenzamide] showed an inhibition constant (Ki) of 12 nM.
Take `CN(C)C(=O)c1c(N)ccc(-c2cnc3c(c2Cl)[C@]2(CC[C@@](C)(CO)CC2)CN3)c1F` [Compound 256a, 6-Amino-3-((1r,4r)-4′-chloro-4-(hydroxymethyl)-4-methyl-1′,2′-dihydrospiro[cyclohexane-1,3′-pyrrolo[2,3-b]pyridin]-5′-yl)-2-fluoro-N,N-dimethylbenzamide]: affinity was put at a Ki of 11.1 nM.
For `Cc1cc(CC#N)nn1-c1cccc(-c2cnc3c(c2Cl)C2(CC=CC2)CN3)c1` [Compound 257, 2-(1-(3-(4′-Chloro-1′,2′-dihydrospiro[cyclopentane-1,3′-pyrrolo[2,3-b]pyridin]-3-en-5′-yl)phenyl)-5-methyl-1H-pyrazol-3-yl)acetonitrile] the value was 53.2 nM.
For `CN(C)C(=O)c1c(N)ccc(-c2cnc3c(c2Cl)[C@]2(CC[C@@H](CN)CC2)CN3)c1F` [Compound 258a, 6-Amino-3-((1r,4r)-4-(aminomethyl)-4′-chloro-1′,2′-dihydrospiro[cyclohexane-1,3′-pyrrolo[2,3-b]pyridin]-5′-yl)-2-fluoro-N,N-dimethylbenzamide] the value was 190 nM.
For `CN(C)C(=O)c1c(N)ccc(-c2cnc3c(c2Cl)[C@]2(CC[C@H](CN)CC2)CN3)c1F` [Compound 258b, 6-Amino-3-((1s,4s)-4-(aminomethyl)-4′-chloro-1′,2′-dihydrospiro[cyclohexane-1,3′-pyrrolo[2,3-b]pyridin]-5′-yl)-2-fluoro-N,N-dimethylbenzamide] the value was 150 nM; for `CN(Cc1cnn(C2CCNC2)c1)C(=O)c1cccc(-c2cnc3c(c2Cl)C2(CC=CC2)CN3)c1F` (stereo not drawn) [Compound 260, 3-(4′-Chloro-1′,2′-dihydrospiro[cyclopentane-1,3′-pyrrolo[2,3-b]pyridin]-3-en-5′-yl)-2-fluoro-N-methyl-N-((1-(pyrrolidin-3-yl)-1H-pyrazol-4-yl)methyl)benzamide], 38 nM.
`CN(Cc1cnn(CCO)c1)C(=O)c1cccc(-c2cnc3c(c2Cl)C2(CC=CC2)CN3)c1F` [Compound 262, 3-(4′-Chloro-1′,2′-dihydrospiro[cyclopentane-1,3′-pyrrolo[2,3-b]pyridin]-3-en-5′-yl)-2-fluoro-N-((1-(2-hydroxyethyl)-1H-pyrazol-4-yl)methyl)-N-methylbenzamide] gave a Ki of 12 nM.
`CN(C)C(=O)C1(c2cccc(-c3cnc4c(c3Cl)C3(CC=CC3)CN4)c2)CC1` [Compound 263, 1-(3-(4′-Chloro-1′,2′-dihydrospiro[cyclopentane-1,3′-pyrrolo[2,3-b]pyridin]-3-en-5′-yl)phenyl)-N,N-dimethylcyclopropane-1-carboxamide]: the affinity, expressed as Ki, was 283 nM.
Then `NC(=O)C1(c2cccc(-c3cnc4c(c3Cl)C3(CC=CC3)CN4)c2F)CC1` [Compound 265, 1-(3-(4′-Chloro-1′,2′-dihydrospiro[cyclopentane-1,3′-pyrrolo[2,3-b]pyridin]-3-en-5′-yl)-2-fluorophenyl)cyclopropane-1-carboxamide], with 108 nM; and `O=C(N1CCOCC1)C1(c2cccc(-c3cnc4c(c3Cl)C3(CC=CC3)CN4)c2)CC1` [Compound 268, (1-(3-(4′-Chloro-1′,2′-dihydrospiro[cyclopentane-1,3′-pyrrolo[2,3-b]pyridin]-3-en-5′-yl)phenyl)cyclopropyl)(morpholino)methanone], with 484 nM.
For `N#CCNC(=O)c1ccnc(-c2cccc(-c3cnc4c(c3Cl)C3(CC=CC3)CN4)c2F)c1` [Compound 269, 2-(3-(4′-Chloro-1′,2′-dihydrospiro[cyclopentane-1,3′-pyrrolo[2,3-b]pyridin]-3-en-5′-yl)-2-fluorophenyl)-N-(cyanomethyl)isonicotinamide] the value was 191 nM; for `CN(CC#N)C(=O)C1(c2cccc(-c3cnc4c(c3Cl)C3(CC=CC3)CN4)c2)CC1` [Compound 270, 1-(3-(4′-Chloro-1′,2′-dihydrospiro[cyclopentane-1,3′-pyrrolo[2,3-b]pyridin]-3-en-5′-yl)phenyl)-N-(cyanomethyl)-N-methylcyclopropane-1-carboxamide], 331 nM; for `CN(C)C(=O)c1c(N)ccc(-c2cnc3c(c2Cl)[C@]2(CC[C@@H](S(C)(=O)=O)CC2)CN3)c1F` [Compound 273a, 6-Amino-3-((1r,4r)-4′-chloro-4-(methylsulfonyl)-1′,2′-dihydrospiro[cyclohexane-1,3′-pyrrolo[2,3-b]pyridin]-5′-yl)-2-fluoro-N,N-dimethylbenzamide], 44.8 nM.
Consider `Clc1c(-c2ccc3[nH]nnc3c2)cnc2c1C1(CC=CC1)CN2` [Compound 276, 5′-(1H-Benzo[d][1,2,3]triazol-5-yl)-4′-chloro-1′,2′-dihydrospiro[cyclopentane-1,3′-pyrrolo[2,3-b]pyridin]-3-ene], for which the affinity, expressed as Ki, was 252 nM.
Then `O=C1OCc2ccc(-c3cnc4c(c3)C3(CC3)CN4)cc21` [Compound 277, 6-(1′,2′-dihydrospiro[cyclopropane-1,3′-pyrrolo[2,3-b]pyridin]-5′-yl)isobenzofuran-1(3H)-one], with 342 nM; and `CCC1(O)C(=O)Nc2ccc(-c3cnc4c(c3)C3(CC3)CN4)cc21` (stereo not drawn) [Compound 278, 5-(1′,2′-dihydrospiro[cyclopropane-1,3′-pyrrolo[2,3-b]pyridin]-5′-yl)-3-ethyl-3-hydroxyindolin-2-one], with 281 nM.
For `CC1(C#N)C(=O)Nc2ccc(-c3cnc4c(c3)C3(CC3)CN4)cc21` (stereo not drawn) [Compound 279, 5-(1′,2′-dihydrospiro[cyclopropane-1,3′-pyrrolo[2,3-b]pyridin]-5′-yl)-3-methyl-2-oxoindoline-3-carbonitrile] the value was 41.8 nM.
For `O=C1Nc2ccc(-c3cnc4c(c3Cl)C3(CC3)CN4)cc2C1(O)C1CC1` (stereo not drawn) [Compound 280, 5-(4′-chloro-1′,2′-dihydrospiro[cyclopropane-1,3′-pyrrolo[2,3-b]pyridin]-5′-yl)-3-cyclopropyl-3-hydroxyindolin-2-one] the value was 179 nM; for `CC1(C(N)=O)C(=O)Nc2ccc(-c3cnc4c(c3Cl)C3(CC3)CN4)cc21` (stereo not drawn) [Compound 281, 5-(4′-chloro-1′,2′-dihydrospiro[cyclopropane-1,3′-pyrrolo[2,3-b]pyridin]-5′-yl)-3-methyl-2-oxoindoline-3-carboxamide], 144 nM.
Take `CC1(C#N)C(=O)Nc2ccc(-c3cnc4c(c3Cl)C3(CC3)CN4)cc21` (stereo not drawn) [Compound 282, 5-(4′-chloro-1′,2′-dihydrospiro[cyclopropane-1,3′-pyrrolo[2,3-b]pyridin]-5′-yl)-3-methyl-2-oxoindoline-3-carbonitrile]: the Ki was 217 nM.
Turning to `Clc1c(-c2cccc3[nH]ccc23)cnc2c1C1(CC=CC1)CN2` [Compound 284, 4-Chloro-5′-(1H-indol-4-yl)-1′,2′-dihydrospiro[cyclopentane-1,3′-pyrrolo[2,3-b]pyridin]-3-ene], affinity was put at a Ki of 629 nM.
For `Clc1c(-c2ccc3[nH]ncc3c2)cnc2c1C1(CC=CC1)CN2` [Compound 285, 4-Chloro-5′-(1H-indazol-5-yl)-1′,2′-dihydrospiro[cyclopentane-1,3′-pyrrolo[2,3-b]pyridin]-3-ene] the value was 375 nM; for `Clc1c(-c2cccc3[nH]ncc23)cnc2c1C1(CC=CC1)CN2` [Compound 286, 4-Chloro-5′-(1H-indazol-4-yl)-1′,2′-dihydrospiro[cyclopentane-1,3′-pyrrolo[2,3-b]pyridin]-3-ene], 120 nM; for `Clc1c(-c2ccc3[nH]ccc3c2)cnc2c1C1(CC=CC1)CN2` [Compound 287, 4-Chloro-5′-(1H-indol-5-yl)-1′,2′-dihydrospiro[cyclopentane-1,3′-pyrrolo[2,3-b]pyridin]-3-ene], 638 nM.
For `CN(C)C(=O)c1nc(-c2cnc3c(c2Cl)[C@]2(CC[C@](C)(C#N)C2)CN3)ccc1N` [Compound 288, 3-Amino-6-((1R,3 S)-4′-chloro-3-cyano-3-methyl-1′,2′-dihydrospiro[cyclopentane-1,3′-pyrrolo[2,3-b]pyridin]-5′-yl)-N,N-dimethylpicolinamide] the value was 16 nM; for `Nc1cc(-c2cnc3c(c2)C2(CC2)CN3)nc(N2CCCOC2=O)n1` [Compound 289, 3-(4-amino-6-(1′,2′-dihydrospiro[cyclopropane-1,3′-pyrrolo[2,3-b]pyridin]-5′-yl)pyrimidin-2-yl)-1,3-oxazinan-2-one], 215 nM.
For `Nc1ccc(-c2cnc3c(c2)C2(CC2)CN3)nc1C(=O)N1CC[C@H](O)C1` [Compound 290a, (S)-(3-amino-6-(1′,2′-dihydrospiro[cyclopropane-1,3′-pyrrolo[2,3-b]pyridin]-5′-yl)pyridin-2-yl)(3-hydroxypyrrolidin-1-yl)methanone] the value was 559 nM; for `Nc1ccc(-c2cnc3c(c2)C2(CC2)CN3)nc1C(=O)N1CC[C@@H](O)C1` [Compound 290b, (R)-(3-amino-6-(1′,2′-dihydrospiro[cyclopropane-1,3′-pyrrolo[2,3-b]pyridin]-5′-yl)pyridin-2-yl)(3-hydroxypyrrolidin-1-yl)methanone], 895 nM; for `CN(C)C(=O)CNc1ccc(-c2cnc3c(c2)C2(CC2)CN3)cn1` [Compound 291, 2-((5-(1′,2′-dihydrospiro[cyclopropane-1,3′-pyrrolo[2,3-b]pyridin]-5′-yl)pyridin-2-yl)amino)-N,N-dimethylacetamide], 236 nM.
`Nc1cc(-c2cnc3c(c2)C2(CC2)CN3)nc(N2CCOC2=O)c1` [Compound 292, 3-(4-amino-6-(1′,2′-dihydrospiro[cyclopropane-1,3′-pyrrolo[2,3-b]pyridin]-5′-yl)pyridin-2-yl)oxazolidin-2-one] had a Ki of 127 nM.

The values above are taken from patent US12208088B2 (Genentech, Inc., priority 2018, dated 2025).
